{"source": "patent US20240124510A1", "about": "“Cyclic Glycoaminoacid Derivatives” (TFCHEM, priority 2021, published 2024)", "key": {"[1]": {"tested_on": "Normal human epidermal keratinocytes (NHEK)", "experiment": "Total lipid neosynthesis in NHEK ([14C]-acetate incorporation)", "format": "cell-based", "settings": "48 hours; for [14C]-Acetate (cpm): individual replicates", "protocol": "Normal human epidermal keratinocytes (NHEK) were seeded in 12-well plates and incubated in culture medium for 24 hours. The medium was then replaced by culture medium containing or not (control) the test compounds or the reference (CaCl2+Vitamin C at 1.5 mM+200 μg/ml respectively) in the presence of the radioactive tracer [^14C]-acetate. Cells were incubated for 48 hours. All experimental conditions were performed in triplicate.\nCulture medium was Keratinocyte-SFM supplemented with Epidermal Growth Factor (EGF) 0.25 ng/ml, Pituitary extract (PE) 25 μg/ml and Gentamycin 25 μg/ml. The assay medium was Keratinocyte-SFM supplemented with Gentamycin 25 μg/ml.\nAt the end of incubation, cells were rinsed with PBS solution and then detached from their support by trypsin treatment. The [^14C]-acetate incorporation was then measured by liquid scintillation (measure of radioactivity). The incorporation is correlated with the total lipid neosynthesis. Results presented in Table 23 are expressed as cpm and % of control."}, "human preadipocytes [2]": {"tested_on": "human preadipocytes", "experiment": "Lipid index (AdipoRed area*intensity, imaging) in preadipocytes in inflammatory condition", "format": "cell-based", "settings": "for Lipid Index (Adipored area * intensity), Mean / Lipid Index (Adipored area * intensity), Values: normalized by cells number (DAPI); for Lipid Index (Adipored area * intensity), Values: individual values", "protocol": "(§1) Preadipocytes have been isolated from human female hypodermis (body mass index <30 kg/m2 and <45 years old). Preadipocytes have been cultured for 24 h in 100 μl of DMEM-10% Fetal Bovine Serum (FBS) in 96-well plates. Then cells were treated to induce their differentiation in a classical or an inflammatory environment for 13 days.\n(§2) To induce the preadipocytes differentiation cells were incubated in a proadipogenic cocktail (PAC) including insulin, glucocorticoid, 3-isobutyl-1-methylxanthine (IBMX), and thiazolinedione in DMEM.\n(§3) To induce a fibro-inflammatory environment, cells were treated with an activated human macrophage-conditioned medium (AcMC) prepared in RPMI medium. A treatment with Dexamethasone (DXM) at 100 nM was used as anti-inflammatory response control. At D0: preadipocytes have been treated in the following conditions: • “Undifferentiation”: DMEM+¼ RPMI medium • “Differentiation”: PAC+¼ RPMI medium • “AcMC” i.e. inflammatory condition: PAC+¼ AcMC • “AcMC+DXM”: PAC+[…] AcMC+anti-inflammatory DXM at 100 nM • “AcMc+compounds”: PAC+14 AcMC+compounds to be tested\n(§4) All conditions have been performed in triplicate. The medium has been changed every 2 days for 13 days.\nA second analysis of lipid accumulation was performed with an imaging acquisition and quantification. The area and the intensity of the lipid droplets were evaluated and quantified for more accurate data. An index was calculated (area*intensity of the AdipoRed staining) and normalized by cells number.\n(§5) Lipid accumulation and Lipid index were evaluated for each condition. Data are represented in percentage of proinflammatory control condition (AcMC condition)."}, "human preadipocytes [3]": {"tested_on": "human preadipocytes", "experiment": "Total lipid accumulation (AdipoRed staining) in preadipocytes/adipocytes in inflammatory condition", "format": "cell-based", "settings": "for Total Lipid Accumulation (Adipored staining), Mean / Total Lipid Accumulation (Adipored staining), Values: end of the culture; for Total Lipid Accumulation (Adipored staining), Values: individual values", "protocol": "as §1, §2, §3, §4\nAfter 14 days of culture, preadipocytes have been fixed with 4% paraformaldehyde and then stained by AdipoRed™ at room temperature to reveal the intracellular lipid droplets. Quantification of lipid accumulation has been performed by fluorescence intensity measurements using the spectrophotometer Spark (TECAN).\nas §5"}, "human preadipocytes [4]": {"tested_on": "human preadipocytes", "experiment": "Proliferation of preadipocytes in inflammatory condition (DAPI nuclei staining)", "format": "cell-based", "settings": "for Cells number at the end of the culture (DAPI staining), Values: individual values; for Cell number (DAPI staining): preadipocytes, inflammatory conditions (AcMC), AcMC control 12 819 AU", "protocol": "as §1, §2, §3, §4\nThe number of cells was determined for each condition by DAPI nuclei staining (nuclei) and expressed in arbitrary unit."}, "procollagen I": {"tested_on": "procollagen I", "experiment": "Extracellular secretion of procollagen I by preadipocytes in inflammatory condition (ELISA)", "format": "cell-based, human", "settings": "for Procollagen I secretion, Mean / Procollagen I secretion, Values: normalized by cells number (DAPI); for Procollagen I secretion, Values: individual values; for Procollagen I secretion compared to the AcMC control condition fixed at 100%: preadipocytes", "protocol": "as §1, §2, §3, §4\nAt D14: during the last 24 h of culture, the medium has been replaced by DMEM/F12 medium in all conditions, to collect cells' secretions.\nAfter 13 days, the 24 h culture media of the different conditions have been collected at the end of the treatment period. The concentrations of IL-6, procollagen I and MCP1 have been evaluated by ELISA assays using specific kits (for IL-6: DY206, DuoSet ELISA, R&D Systems; for Procollagen I: DY6220-05, DuoSet ELISA, R&D Systems; for MCP1: DY279-05 DuoSet ELISA, R&D Systems) according to the manufacture's recommendations. Values have been normalized to the cell number determined by DAPI staining.\nExtracellular secretions of procollagen I by preadipocytes in inflammatory condition Quantity of procollagen secreted in medium was measured and normalized by cell number in each culture condition. Data are represented in percentage of proinflammatory control conditions (AcMC condition)."}}, "note": "Several values for one entry are separate records, joined by “and”; a condition that tells them apart may be missing. Equal entries are not always repeated.", "data": [{"smiles": "N[C@H]1CCCN(CC(F)(F)[C@]2(O)O[C@H](CO)[C@H](O)[C@H](O)[C@H]2O)C1=O", "note": "[Compound 6]", "values": [{"measurement": "% Control (total lipid neosynthesis)", "setting": "[1]; 1 mg/ml", "value": 110, "unit": "%"}, {"measurement": "% Stimulation (total lipid neosynthesis)", "setting": "[1]; 1 mg/ml", "value": 10, "unit": "%"}, {"measurement": "[14C]-Acetate Mean (cpm)", "setting": "[1]; 1 mg/ml", "value": 78584, "unit": "cpm"}, {"measurement": "[14C]-Acetate (cpm)", "setting": "[1]; 1 mg/ml", "value": "77267 cpm and 78905 cpm and 79581 cpm"}, {"measurement": "% Control (total lipid neosynthesis)", "setting": "[1]; 3 mg/ml", "value": 121, "unit": "%"}, {"measurement": "% Stimulation (total lipid neosynthesis)", "setting": "[1]; 3 mg/ml", "value": 21, "unit": "%"}, {"measurement": "[14C]-Acetate Mean (cpm)", "setting": "[1]; 3 mg/ml", "value": 86022, "unit": "cpm"}, {"measurement": "[14C]-Acetate (cpm)", "setting": "[1]; 3 mg/ml", "value": "84794 cpm and 87349 cpm and 85922 cpm and 86860 cpm"}, {"measurement": "Stimulation of lipid synthesis compared to the control", "setting": "[1]; 1 mg/ml", "value": 10, "unit": "%"}, {"measurement": "Stimulation of lipid synthesis compared to the control", "setting": "[1]; 3 mg/ml", "value": 21, "unit": "%"}, {"measurement": "Lipid Index (Adipored area * intensity), Mean", "setting": "human preadipocytes [2]; AcMC + 1 mg/ml", "value": "158.6 % of AcMC condition"}, {"measurement": "Lipid Index (Adipored area * intensity), Values", "setting": "human preadipocytes [2]; AcMC + 1 mg/ml", "value": "150.8 % of AcMC condition and 156.6 % of AcMC condition and 168.4 % of AcMC condition"}, {"measurement": "Lipid Index (Adipored area * intensity), Mean", "setting": "human preadipocytes [2]; AcMC + 2 mg/ml", "value": "297.9 % of AcMC condition"}, {"measurement": "Lipid Index (Adipored area * intensity), Values", "setting": "human preadipocytes [2]; AcMC + 2 mg/ml", "value": "286.0 % of AcMC condition and 338.7 % of AcMC condition and 269.0 % of AcMC condition"}, {"measurement": "Lipid index compared to AcMC control", "setting": "human preadipocytes [2]; both concentration, inflammatory media", "value": "increased"}, {"measurement": "Total Lipid Accumulation (Adipored staining), Mean", "setting": "human preadipocytes [3]; AcMC + 1 mg/ml", "value": "126.8 % of AcMC condition"}, {"measurement": "Total Lipid Accumulation (Adipored staining), Values", "setting": "human preadipocytes [3]; AcMC + 1 mg/ml", "value": "130.3 % of AcMC condition and 123.6 % of AcMC condition and 126.5 % of AcMC condition"}, {"measurement": "Total Lipid Accumulation (Adipored staining), Mean", "setting": "human preadipocytes [3]; AcMC + 2 mg/ml", "value": "137.0 % of AcMC condition"}, {"measurement": "Total Lipid Accumulation (Adipored staining), Values", "setting": "human preadipocytes [3]; AcMC + 2 mg/ml", "value": "137.2 % of AcMC condition and 132.3 % of AcMC condition and 141.4 % of AcMC condition"}, {"measurement": "Total lipid synthesis (lipid accumulation) in the inflammatory media", "setting": "human preadipocytes [3]; both concentration", "value": "increase lipid synthesis"}, {"measurement": "Cells number at the end of the culture, DAPI staining, Mean", "setting": "human preadipocytes [4]; AcMC + 1 mg/ml", "value": 18154, "unit": "AU"}, {"measurement": "Cells number at the end of the culture (DAPI staining), Values", "setting": "human preadipocytes [4]; AcMC + 1 mg/ml", "value": "18502 AU and 17976 AU and 17985 AU"}, {"measurement": "Cells number at the end of the culture, DAPI staining, Mean", "setting": "human preadipocytes [4]; AcMC + 2 mg/ml", "value": 20147, "unit": "AU"}, {"measurement": "Cells number at the end of the culture (DAPI staining), Values", "setting": "human preadipocytes [4]; AcMC + 2 mg/ml", "value": "20261 AU and 20369 AU and 19811 AU"}, {"measurement": "Cell number (DAPI staining)", "setting": "human preadipocytes [4]; 1 mg/ml", "value": "18 154 AU"}, {"measurement": "Cell number (DAPI staining)", "setting": "human preadipocytes [4]; 2 mg/ml", "value": "20 147 AU"}, {"measurement": "Procollagen I secretion, Mean", "setting": "procollagen I; AcMC + 1 mg/ml", "value": "49.9 % of AcMC condition"}, {"measurement": "Procollagen I secretion, Values", "setting": "procollagen I; AcMC + 1 mg/ml", "value": "39.3 % of AcMC condition and 57.7 % of AcMC condition and 52.7 % of AcMC condition"}, {"measurement": "Procollagen I secretion, Mean", "setting": "procollagen I; AcMC + 2 mg/ml", "value": "46.2 % of AcMC condition"}, {"measurement": "Procollagen I secretion, Values", "setting": "procollagen I; AcMC + 2 mg/ml", "value": "47.0 % of AcMC condition and 40.2 % of AcMC condition and 51.2 % of AcMC condition"}, {"measurement": "Procollagen I secretion compared to the AcMC control condition fixed at 100%", "setting": "procollagen I; 1 mg/ml", "value": 49.9, "unit": "%"}, {"measurement": "Procollagen I secretion compared to the AcMC control condition fixed at 100%", "setting": "procollagen I; 2 mg/ml", "value": 46.2, "unit": "%"}]}]}
